Assay results: patent US11007179B2, “Opioid receptor modulator dosage formulations” (Allergan Holdings Unlimited Company, priority 2013, dated 2021)

How the values were obtained:
stressed subjects = experiment: gastrointestinal motility in stressed subjects, oral administration; format: in vivo
rats = experiment: visceral hyperalgesia in rats, oral administration; format: in vivo
[1] = tested on: stressed and non-stressed mice; details: cited from earlier work

Compound	gastrointestinal (GI) motility (stressed subjects)	anti-visceral hyperalgesic effects (rats)	dose range of the effect [1]	gastrointestinal transit and fecal output [1]
COc1ccc(CN(C(=O)C(N)Cc2c(C)cc(C(N)=O)cc2C)C(C)c2nc(-c3ccccc3)c[nH]2)cc1C(=O)O (stereo not shown) [active ingredient]	efficacious in normalizing gastrointestinal (GI) motility	providing anti-visceral hyperalgesic effects	–	–
CN(C)C(=O)C(CCN1CCC(O)(c2ccc(Cl)cc2)CC1)(c1ccccc1)c1ccccc1 [loperamide]	–	–	narrow dose range	completely prevented fecal output
